Measurements published in patent US20050239753A1, “Methods of inhibition of MMTV-like viruses” (GILEAD SCIENCES, INC., priority 2004, published 2005).

Legend:
[1] = biological target: T1, MMTV RT (Mouse mammary tumor virus, UniProt P03365); assay: MMTV RT activity, filter-based [33P]dNTP incorporation assay on lysed MMTV particles; assay type: biochemical; parameters: MMTV particles were isolated and concentrated from MM5MT cells (ATCC) after induction with dexamethasone and insulin; host or cells: MM5MT cells (virus-producing mouse mammary tumour line), induced with dexamethasone and insulin; lysed virions; conditions: for potency against MMTV RT relative to 3TCppp: more potent than 3TCppp
T1 sequence (P03365 861-1436): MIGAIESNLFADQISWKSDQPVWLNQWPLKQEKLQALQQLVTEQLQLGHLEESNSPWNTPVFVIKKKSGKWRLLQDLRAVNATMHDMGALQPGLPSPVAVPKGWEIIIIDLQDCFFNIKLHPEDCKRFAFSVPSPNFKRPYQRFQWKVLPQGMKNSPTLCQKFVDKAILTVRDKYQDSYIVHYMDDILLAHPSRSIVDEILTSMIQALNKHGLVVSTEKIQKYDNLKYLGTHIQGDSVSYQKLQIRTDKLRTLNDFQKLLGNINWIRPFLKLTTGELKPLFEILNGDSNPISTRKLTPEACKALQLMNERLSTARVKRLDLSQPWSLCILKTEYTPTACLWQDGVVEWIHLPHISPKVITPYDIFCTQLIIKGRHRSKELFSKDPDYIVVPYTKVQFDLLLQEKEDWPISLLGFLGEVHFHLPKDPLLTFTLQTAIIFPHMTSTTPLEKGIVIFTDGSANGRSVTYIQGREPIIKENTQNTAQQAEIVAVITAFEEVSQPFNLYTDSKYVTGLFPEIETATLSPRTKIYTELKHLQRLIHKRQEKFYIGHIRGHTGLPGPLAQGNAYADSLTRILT
Experimental: MMTV particles were isolated and concentrated from MM5MT cells (ATCC) after induction with dexamethasone and insulin as previously described (Fine, D., et al., In Vitro 12:693-701, 1976). Lysed particles were assayed for RT activity using a standard filter-based, [^33P]dNTP incorporation assay (modified from Wu, J., et al., J. Biol. Chem. 268:9980-9985, 1993). Inhibition of the RT activity was measured by adding the test compounds, the acyclic nucleoside diphosphophosphonates and cyclic nucleoside triphosphates, at various concentrations and 50% inhibitory concentrations (IC50) were calculated for each compound. All compounds tested were active against the MMTV RT. […] The activity of AZTppp against the MMTV RT as previously observed was confirmed with an IC50 value of 0.4 μM.

[2] = biological target: T1, MMTV RT; conditions: cited from earlier work

SMILES	IC50 [1] [µM]	direct inhibition of the MMTV RT enzyme compared with HIV RT enzyme [2]	activity against the MMTV RT [1]	potency against MMTV RT relative to 3TCppp [1] [fold]
Nc1ccn([C@@H]2CS[C@H](COP(=O)(O)OP(=O)(O)OP(=O)(O)O)O2)c(=O)n1 [3TCppp, reference compound]	108			
Cc1cn([C@H]2C[C@H](N=[N+]=[N-])[C@@H](COP(=O)(O)OP(=O)(O)OP(=O)(O)O)O2)c(=O)[nH]c1=O [AZTppp, reference compound]	0.4	as efficiently as the HIV RT enzyme		
Nc1nc(=O)n([C@@H]2CS[C@H](COP(=O)(O)OP(=O)(O)OP(=O)(O)O)O2)cc1F [FTCppp, reference compound]	44			
Nc1ncnc2c1ncn2CCOCP(=O)(O)OP(=O)(O)OP(=O)(O)O [PMEApp]	~4		active	25
C[C@H](Cn1cnc2c(N)ncnc21)OCP(=O)(O)OP(=O)(O)OP(=O)(O)O [PMPApp]	~4		active	25
